Key:
[1] = test system: GM-CSF induced pSTAT5 (JAK2-pSTAT5); test: GM-CSF Induced pSTAT5 in human PBMC; type: cell-based; details: GM-CSF 5 ng/mL
Description: GM-CSF Induced pSTAT5 in human PBMC. Cells are prepared for analysis as in the above procedure and 15 μl of GM-CSF (final concentration 5 ng/mL) is added for 20 minutes prior to pSTAT5 and total STAT5 analysis using cell lysates prepared and analyzed by MSD reagents as per manufacturer protocol. The final DMSO concentration of compound in the assay is 0.1%.
(§1) The compound numbers correspond to the compound numbers in Table 1. Compounds having an activity designated as “A” provided an EC50≤2 μM; compounds having an activity designated as “B” provided a EC50 of 2-20 μM, and compounds having an activity designated as “C” provided an EC50>20 μM.

[2] = test system: IL-12 induced pSTAT4 (Tyk2-pSTAT4); test: IL-12 Induced pSTAT4 in human PBMC; type: cell-based; details: IL-12 1.7 ng/mL
Description: IL-12 Induced pSTAT4 in human PBMC. Human PBMC are isolated from buffy coat and are stored frozen for assays as needed. Cells for assay are thawed and resuspended in complete media containing serum, then cells are diluted to 1.67 E6 cells/ml so that 120 μl per well is 200,000 cells. 15 μl of compound or DMSO is added to the well at the desired concentrations and incubated at 1 hr at 37 C. 15 μl of stimulus (final concentration of 1.7 ng/mL IL-12) is added for 30 minutes prior to pSTAT4 and total STAT4 analysis using cell lysates prepared and analyzed by MSD reagents as per manufacturer protocol. The final DMSO concentration of compound in the assay is 0.1%.
as §1

JAK2 = JAK2 (Homo sapiens (Human), UniProt O60674); test: JAK2 activity inhibition assay (radioactive kinase / Caliper assay); type: biochemical
Description: (§2) Peptide substrate, [KKSRGDYMTMQIG], (20 μM) is prepared in reaction buffer (20 mM Hepes pH 7.5, 10 mM MgCl2, 1 mM EGTA, 0.02% Brij35, 0.02 mg/mL BSA, 0.1 mM […], 2 mM DTT, 1% DMSO. TYK2 (Invitrogen) kinase is added, followed by compounds in DMSO. 33PATP is added to initiate the reaction in ATP at 10 μM. Kinase reaction is incubated for 120 min at room temp and reactions are spotted onto P81 ion exchange paper (Whatman #3698-915), and then washed extensively in 0.75% phosphoric acid, prior to reading the radioactivity counts. For JAK2 (Invitrogen) kinase assay the peptide substrate poly[Glu:Tyr] (4:1), 0.2 mg/ml is used, in the reaction carried out the same as for TYK2.
(§3) The caliper machine employs an off chip mobility shift assay to detect phosphorylated peptide substrates from kinase assays, using microfluidics technology. The assays are carried out at ATP concentration equivalent to the ATP Km, and at 1 mM ATP. Compounds are serially diluted in DMSO then further diluted in assay buffer (25 mM HEPES, pH 7.5, 0.01% Brij-35, 0.01% Triton, 0.5 mM EGTA). 5 ul of diluted compound was added into wells first, then 10 ul of enzyme mix was added into wells, followed by 10 uL of substrate mix (peptide and ATP in 10 mM MgCl2) to start reaction. Reaction was incubated at 28° C. for 25 min and then added 25 ul stop buffer (100 mM HEPES, 0.015% Brij-35, 50 mM EDTA), followed by reading with Caliper. JAK2 at 1 nM final concentration and TYK2 at 9.75 nM are from Carna, and substrates used are ATP at 20 and 16 uM, respectively. JAK2 assay uses peptide 22 and TYK2 uses peptide 30 (Caliper), each at 3 uM.
(§4) The compound numbers correspond to the compound numbers in Table 1. Compounds having an activity designated as “A” provided an Ki≤0.01 μM; compounds having an activity designated as “B” provided an Ki of 0.01-0.1 μM; compounds having an activity designated as “C” provided an Ki of 0.1-1.0 μM; and compounds having an activity designated as “D” provided an Ki≥1.0 μM.

TYK2 = TYK2 (Homo sapiens (Human), UniProt P29597); test: Tyk2 activity inhibition assay (radioactive kinase / Caliper assay); type: biochemical
Description: as §2, §3, §4

TYK2, sequence (P29597 whole entry): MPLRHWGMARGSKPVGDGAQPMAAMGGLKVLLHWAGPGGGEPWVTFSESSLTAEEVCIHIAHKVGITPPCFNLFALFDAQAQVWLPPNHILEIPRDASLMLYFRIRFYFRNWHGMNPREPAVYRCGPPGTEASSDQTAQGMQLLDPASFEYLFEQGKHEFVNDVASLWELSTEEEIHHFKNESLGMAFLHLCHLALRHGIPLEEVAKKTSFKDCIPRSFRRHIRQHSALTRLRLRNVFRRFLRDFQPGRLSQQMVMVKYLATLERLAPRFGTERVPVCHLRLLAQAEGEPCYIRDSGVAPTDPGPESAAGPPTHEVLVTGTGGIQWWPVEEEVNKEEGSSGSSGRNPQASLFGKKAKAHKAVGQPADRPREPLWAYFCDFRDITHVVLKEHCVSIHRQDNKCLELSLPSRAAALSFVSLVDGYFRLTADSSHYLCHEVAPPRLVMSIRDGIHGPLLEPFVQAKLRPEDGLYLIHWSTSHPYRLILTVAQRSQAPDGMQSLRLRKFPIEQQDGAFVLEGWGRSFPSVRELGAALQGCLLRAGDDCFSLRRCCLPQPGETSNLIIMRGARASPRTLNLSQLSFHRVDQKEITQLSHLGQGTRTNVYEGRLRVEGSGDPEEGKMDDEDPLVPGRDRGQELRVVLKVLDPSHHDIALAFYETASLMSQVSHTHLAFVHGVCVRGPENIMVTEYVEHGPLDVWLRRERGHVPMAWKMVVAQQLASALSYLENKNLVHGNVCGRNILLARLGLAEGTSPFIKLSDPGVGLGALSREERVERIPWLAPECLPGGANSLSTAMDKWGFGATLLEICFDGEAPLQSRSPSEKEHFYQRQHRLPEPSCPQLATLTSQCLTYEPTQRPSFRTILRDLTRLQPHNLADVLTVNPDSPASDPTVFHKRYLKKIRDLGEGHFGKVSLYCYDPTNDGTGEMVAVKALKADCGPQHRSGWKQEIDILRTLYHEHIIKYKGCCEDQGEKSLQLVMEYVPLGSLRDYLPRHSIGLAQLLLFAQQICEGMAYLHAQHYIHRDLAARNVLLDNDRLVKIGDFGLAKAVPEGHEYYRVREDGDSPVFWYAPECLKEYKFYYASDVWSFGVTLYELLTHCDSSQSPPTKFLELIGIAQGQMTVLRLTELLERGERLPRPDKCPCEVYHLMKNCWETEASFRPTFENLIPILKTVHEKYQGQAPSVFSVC
JAK2, sequence (O60674 whole entry): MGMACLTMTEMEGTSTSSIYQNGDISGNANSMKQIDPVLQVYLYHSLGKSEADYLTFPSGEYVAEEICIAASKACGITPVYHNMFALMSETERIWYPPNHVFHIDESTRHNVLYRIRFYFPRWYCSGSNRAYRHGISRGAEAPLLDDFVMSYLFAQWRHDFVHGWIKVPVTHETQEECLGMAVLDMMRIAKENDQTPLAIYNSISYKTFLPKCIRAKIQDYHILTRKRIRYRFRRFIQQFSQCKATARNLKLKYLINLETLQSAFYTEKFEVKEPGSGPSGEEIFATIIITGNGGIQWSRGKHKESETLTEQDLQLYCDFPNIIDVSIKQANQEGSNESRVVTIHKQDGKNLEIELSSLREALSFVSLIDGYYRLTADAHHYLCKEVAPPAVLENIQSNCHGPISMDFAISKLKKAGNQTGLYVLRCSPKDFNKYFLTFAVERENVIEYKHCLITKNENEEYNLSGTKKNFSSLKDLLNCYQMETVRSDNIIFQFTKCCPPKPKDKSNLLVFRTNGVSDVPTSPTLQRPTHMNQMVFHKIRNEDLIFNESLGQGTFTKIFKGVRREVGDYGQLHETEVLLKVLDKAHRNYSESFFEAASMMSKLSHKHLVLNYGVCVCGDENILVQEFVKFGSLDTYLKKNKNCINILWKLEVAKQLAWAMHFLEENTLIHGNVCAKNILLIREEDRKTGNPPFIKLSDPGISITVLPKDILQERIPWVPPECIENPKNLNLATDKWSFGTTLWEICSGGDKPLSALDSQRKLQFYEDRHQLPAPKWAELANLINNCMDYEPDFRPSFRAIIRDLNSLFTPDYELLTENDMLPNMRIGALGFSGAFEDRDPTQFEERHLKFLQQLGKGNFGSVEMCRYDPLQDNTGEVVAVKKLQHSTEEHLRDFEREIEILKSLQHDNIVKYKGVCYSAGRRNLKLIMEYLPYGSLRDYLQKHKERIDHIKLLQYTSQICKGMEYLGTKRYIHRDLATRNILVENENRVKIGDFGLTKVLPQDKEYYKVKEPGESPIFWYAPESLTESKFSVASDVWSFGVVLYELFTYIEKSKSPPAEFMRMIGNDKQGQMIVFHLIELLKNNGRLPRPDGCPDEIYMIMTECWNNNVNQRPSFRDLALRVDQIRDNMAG

Row | SMILES | EC50 [1] [nM] | EC50 [2] [nM] | Ki (JAK2) [nM] | Ki (TYK2) [nM]
1 | C[C@](O)(c1ccc(Nc2nc(-c3c(F)cccc3F)nc3c2C(=O)NC3)cc1)C(F)(F)F [Compound I-34, (S)-2-(2,6-difluorophenyl)-4-((4-(1,1,1-trifluoro-2-hydroxy-propan-2-yl)phenyl)amino)-6,7-dihydro-5H-pyrrolo[3,4-d]pyrimidin-5-one] | 2000 to 20000 | ≤ 2000 | 10 to 100 | –
2 | CC1(C)CNc2nc(Nc3cc(-c4c(F)cccc4F)nc4c3C(=O)NC4)ccc21 [Compound I-10, 2-(2,6-difluorophenyl)-4-((3,3-dimethyl-2,3-dihydro-1H-pyrrolo[2,3-b]pyridin-6-yl)amino)-6,7-dihydro-5H-pyrrolo[3,4-b]pyridin-5-one] | ≤ 2000 | ≤ 2000 | 10 to 100 | ≤ 10
3 | O=C1NCc2nc(-c3c(F)cccc3F)cc(Nc3ccc(N4CCC5(CC4)CC5)cn3)c21 [Compound I-20, 4-((5-(6-azaspiro[2.5]octan-6-yl)pyridin-2-yl)amino)-2-(2,6-difluorophenyl)-6,7-dihydro-5H-pyrrolo[3,4-b]pyridin-5-one] | > 20000 | ≤ 2000 | 10 to 100 | ≤ 10
4 | N#Cc1cccc(F)c1-c1cc(Nc2ccc(N3CC4(CC4)C(O)C4(CC4)C3)cn2)c2c(n1)CNC2=O [Compound I-87, 3-fluoro-2-(4-((5-(4-hydroxy-9-azadispiro[2.1.25.33]decan-9-yl)pyridin-2-yl)amino)-5-oxo-6,7-dihydro-5H-pyrrolo [3,4-b]pyridin-2-yl)benzonitrile] | – | – | ≤ 10 | ≤ 10
5 | CN1C(=O)C(C)(c2ccc(Nc3nc(-c4c(F)cccc4F)nc4c3C(=O)NC4)cc2)c2ccccc21 (stereo not shown) [Compound I-48, 2-(2,6-difluorophenyl)-4-((4-(1,3-dimethyl-2-oxoindolin-3-yl)phenyl)amino)-6,7-dihydro-5H-pyrrolo[3,4-d]pyrimidin-5-one] | – | – | 100 to 1000 | 10 to 100
6 | O=C1NCc2nc(-c3c(F)cccc3F)cc(Nc3ccc(C(=O)N4CCC5(CCCCO5)CC4)cc3)c21 [Compound I-54, 4-((4-(1-oxa-9-azaspiro[5.5]undecane-9-carbonyl)phenyl)amino)-2-(2,6-difluorophenyl)-6,7-dihydro-5H-pyrrolo[3,4-b]pyridin-5-one] | – | – | 10 to 100 | ≤ 10
7 | CCNC(=O)[C@](C)(O)c1ccc(Nc2nc(-c3c(F)cccc3F)nc3c2C(=O)NC3)cc1 [Compound I-16, (R)-2-(4-((2-(2,6-difluorophenyl)-5-oxo-6,7-dihydro-5H-pyrrolo[3,4-d]pyrimidin-4-yl)amino)phenyl)-N-ethyl-2-hydroxypropanamide] | – | – | 100 to 1000 | ≤ 10
8 | Nc1ccc2ccn(-c3cc(-c4c(F)cccc4F)nc4c3C(=O)NC4)c2n1 [Compound I-19, 4-(6-amino-1H-pyrrolo[2,3-b]pyridin-1-yl)-2-(2,6-difluorophenyl)-6,7-dihydro-5H-pyrrolo[3,4-b]pyridin-5-one] | – | – | ≥ 1000 | 10 to 100
9 | O=C1NCc2nc(-c3c(F)cccc3F)nc(Nc3ccc(OC(CO)CO)cc3)c21 [Compound I-12, 2-(2,6-difluorophenyl)-4-((4-((1,3-dihydroxypropan-2-yl)oxy)phenyl)amino)-6,7-dihydro-5H-pyrrolo[3,4-d]pyrimidin-5-one] | – | – | 100 to 1000 | ≤ 10
10 | CC(O)(c1ccc(Nc2nc(-c3c(F)cccc3F)nc3c2C(=O)NC3)cc1)C(F)(F)F (stereo not shown) [Compound I-33, 2-(2,6-difluorophenyl)-4-((4-(1,1,1-trifluoro-2-hydroxy-propan-2-yl)phenyl)amino)-6,7-dihydro-5H-pyrrolo[3,4-d]pyrimidin-5-one] | – | – | 100 to 1000 | ≤ 10
11 | CC(O)(c1ccc(Nc2cc(-c3c(F)cccc3F)nc3c2C(=O)NC3)nc1)C(F)(F)F (stereo not shown) [Compound I-78, 2-(2,6-difluorophenyl)-4-((5-(1,1,1-trifluoro-2-hydroxypropan-2-yl)pyridin-2-yl)amino)-6,7-dihydro-5H-pyrrolo[3,4-b]pyridin-5-one] | – | – | 10 to 100 | ≤ 10
12 | O=C1NCc2nc(-c3c(F)cccc3F)cc(Nc3ccc4c(c3)CS(=O)(=O)C4)c21 [Compound I-86, 2-(2,6-difluorophenyl)-4-((2,2-dioxido-1,3-dihydro-benzo[c]thio-phen-5-yl)amino)-6,7-dihydro-5H-pyrrolo[3,4-b]pyridin-5-one] | – | – | 10 to 100 | ≤ 10
13 | C[C@](N)(C(=O)O)c1ccc(Nc2nc(-c3c(F)cccc3F)nc3c2C(=O)NC3)cc1 [Compound I-46, (R)-2-amino-2-(4-((2-(2,6-difluorophenyl)-5-oxo-6,7-dihydro-5H-pyrrolo[3,4-d]pyrimidin-4-yl)amino)phenyl)propanoic acid hydro-chloride] | – | – | 100 to 1000 | 10 to 100
14 | O=C1NCc2nc(-c3c(F)cccc3F)cc(Nc3ccc(C(=O)N4CCOCC45CC5)cc3)c21 [Compound I-51, 4-((4-(7-oxa-4-azaspiro[2.5]octane-4-carbonyl)phenyl)amino)-2-(2,6-difluorophenyl)-6,7-dihydro-5H-pyrrolo[3,4-b]pyridin-5-one] | – | – | ≤ 10 | ≤ 10

Further lines, results first:

Row | EC50 [1] [nM] | EC50 [2] [nM] | Ki (JAK2) [nM] | Ki (TYK2) [nM] | SMILES
15 | 2000 to 20000 | ≤ 2000 | 100 to 1000 | ≤ 10 | O=C1NCc2nc(-c3c(F)cccc3F)nc(Nc3ccc4c(c3)NCC4)c21 [Compound I-1, 2-(2,6-difluorophenyl)-4-(indolin-6-ylamino)-6,7-dihydro-5H-pyrrolo[3,4-d]pyrimidin-5-one]
16 | 2000 to 20000 | ≤ 2000 | ≤ 10 | ≤ 10 | O=C1NCc2nc(-c3c(F)cccc3F)cc(Nc3ccc(C(=O)N4CCC5(CCOCC5)CC4)cc3)c21 [Compound I-58, 4-((4-(3-oxa-9-azaspiro[5.5]undecane-9-carbonyl)phenyl)amino)-2-(2,6-difluorophenyl)-6,7-dihydro-5H-pyrrolo[3,4-b]pyridin-5-one]
17 | – | – | 10 to 100 | ≤ 10 | O=C1NCc2nc(-c3c(F)cccc3F)cc(Nc3ccc4c(n3)NCC4)c21 [Compound I-22, 2-(2,6-difluorophenyl)-4-((2,3-dihydro-1H-pyrrolo[2,3-b]pyridin-6-yl)amino)-6,7-dihydro-5H-pyrrolo[3,4-b]pyridin-5-one]
18 | – | – | 10 to 100 | ≤ 10 | CC(O)(c1ccc(Nc2cc(-c3c(F)cccc3F)nc3c2C(=O)NC3)cc1)C(F)(F)F (stereo not shown) [Compound I-42, 2-(2,6-difluorophenyl)-4-((4-(1,1,1-trifluoro-2-hydroxypropan-2-yl)phenyl)amino)-6,7-dihydro-5H-pyrrolo[3,4-b]pyridin-5-one]
19 | – | – | 100 to 1000 | ≤ 10 | O=C1NCc2nc(-c3c(F)cccc3F)nc(Nc3ccc(C(=O)N4CC5CCC(C4)O5)cc3)c21 [Compound I-5, 4-((4-(8-oxa-3-azabicyclo[3.2.1]octane-3-carbonyl)phenyl)-amino)-2-(2,6-difluorophenyl)-6,7-dihydro-5H-pyrrolo[3,4-d]pyrimidin-5-one]
20 | – | – | 10 to 100 | ≤ 10 | O=C1NCc2nc(-c3c(F)cccc3F)cc(Nc3ccc4c(c3)OC3(CC3)C4=O)c21 [Compound I-77, 2-(2,6-difluorophenyl)-4-((3-oxo-3H-spiro[benzofuran-2,1′-cyclopropan]-6-yl)amino)-6,7-dihydro-5H-pyrrolo[3,4-b]pyridin-5-one]
